Values joined by “and” are separate entries in the source; they are usually repeats but may differ in a detail not shown here. Equal values may be shown once. Read-outs that look alike come from different tables or passages of the source.
What was measured:
[1] = target: Opioid Receptor Mu 1 (OPRM1) (Homo sapiens, UniProt P35372); assay: cell-based; conditions: 10 μM HU-MCA-13, read-out: Maximal Response
hERG (Kv11.1) = target: T1, hERG (Kv11.1) (Homo sapiens, UniProt Q12809); assay: in vitro; type: cell-based; conditions: Blocker mode, 10 μM HU-MCA-13, read-out: Maximal Response
T1 construct: DiscoverX (SAFETYscan contract panel)
T1 sequence (Q12809 whole entry): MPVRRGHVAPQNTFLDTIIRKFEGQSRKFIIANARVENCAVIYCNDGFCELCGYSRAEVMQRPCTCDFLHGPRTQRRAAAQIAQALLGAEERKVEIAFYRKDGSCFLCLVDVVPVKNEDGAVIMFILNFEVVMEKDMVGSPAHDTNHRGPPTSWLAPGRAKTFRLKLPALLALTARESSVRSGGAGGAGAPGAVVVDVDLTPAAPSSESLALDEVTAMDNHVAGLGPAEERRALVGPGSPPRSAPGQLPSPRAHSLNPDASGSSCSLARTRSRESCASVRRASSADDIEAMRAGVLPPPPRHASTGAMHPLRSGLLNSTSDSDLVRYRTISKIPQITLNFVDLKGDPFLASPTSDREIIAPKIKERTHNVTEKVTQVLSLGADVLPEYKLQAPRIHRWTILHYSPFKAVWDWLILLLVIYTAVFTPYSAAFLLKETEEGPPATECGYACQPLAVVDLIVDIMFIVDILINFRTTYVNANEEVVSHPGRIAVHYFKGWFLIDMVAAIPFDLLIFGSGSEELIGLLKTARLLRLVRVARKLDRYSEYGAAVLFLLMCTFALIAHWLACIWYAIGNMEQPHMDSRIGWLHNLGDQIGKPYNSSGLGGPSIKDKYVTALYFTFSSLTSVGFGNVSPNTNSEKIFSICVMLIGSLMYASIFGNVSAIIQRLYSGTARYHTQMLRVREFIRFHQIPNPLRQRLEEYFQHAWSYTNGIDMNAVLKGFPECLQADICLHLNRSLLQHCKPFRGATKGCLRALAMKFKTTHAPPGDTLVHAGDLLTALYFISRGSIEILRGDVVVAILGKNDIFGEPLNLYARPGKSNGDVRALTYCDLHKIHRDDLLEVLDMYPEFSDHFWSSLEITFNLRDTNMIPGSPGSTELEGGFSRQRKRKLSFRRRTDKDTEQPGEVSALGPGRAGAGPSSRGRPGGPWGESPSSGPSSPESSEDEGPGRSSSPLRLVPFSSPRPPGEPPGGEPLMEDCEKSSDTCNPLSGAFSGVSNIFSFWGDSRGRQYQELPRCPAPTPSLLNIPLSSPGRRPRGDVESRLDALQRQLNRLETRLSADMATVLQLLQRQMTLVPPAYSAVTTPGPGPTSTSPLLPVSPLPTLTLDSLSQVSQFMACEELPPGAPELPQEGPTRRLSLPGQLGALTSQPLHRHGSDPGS

male C57BL/6 mice = assay: Sensory motor/neurological-neurobehavioral tests (mNSS); type: in vivo; conditions: 250 mg/kg iv; for Angle of increase / Beam balance (score) / Hind limb (placing test score) / mNSS / Foot fault / Self-suspension time: individual animal; for Foot fault / Self-suspension time: listed as HU-MCA-13, 250 mg/kg
Procedure: This pilot study was conducted to obtain acute information of the dose toxicity of HU-MCA-13 (Compound 13 in Scheme 1) in male mice. Male C57BL/6 mice, were injected intravenously with 0.2 ml of HU-MCA-13 in a dose of 250 mg/kg. Mice were monitored for 4 consecutive weeks for autonomic and neurotoxicity symptoms. The mortality and changes on body weight, clinical signs, gross observation, were monitored up to 30 days after treatment. No mortality was found at this high dose of 250 mg/kg. […] The mice were examined once a week for autonomic symptoms by measuring salivation, urinary delivery, pupillary constriction, heart rate, blood pressure, and hair contraction. […] Occurrences of either flaccid or spastic paralysis of the legs were not observed. […] Furthermore, no mice sudden deaths occurred within 24 hours after the injection or during the 4 weeks of observation. […] Sensory motor tests were scored individually and according to the modified neurologic function severity score (mNSS). The data from each individual test and the total score calculated from individual tests that make up the mNSS were measured. The following assays were used: a. beam balance test—mice were placed on a 1-inch wide beam for 60 seconds. A normal response is balance with steady posture for 60 seconds (a score of 0). Deficits are scored if the rat: grasps the side of the beam (a score of 1), hugs the beam and one limb falls down from the beam (a score of 2), hugs the beam and two limbs fall off the beam (a score of 3), attempts to balance on the beam, but falls off from 60 seconds (a score of 4), attempts to balance on the beam but falls off from […], or falls off with no attempt to balance or hang on the beam in <20 seconds (a score of 6); b. foot fault test—forelimb movement dysfunction, while walking on elevated metal grids, was monitored. The animal was placed on horizontal grids (85.5×26.5×20) cm with a glass enclosure for observation. With each weight bearing step, the forelimb can fall or slip between the metal support bars, an event recorded as a foot fault. The total number of forelimb steps and the total number of foot faults were recorded. The percentage of forelimb foot faults to the total steps that occurred within 2 minutes marks the test results; c. hind limb placing test—This test monitors reposition of hind limbs placed down and away from the table edge. The ability to retrieve and place the hind limbs back onto the table was scored. Immediate and complete limb retrieval was scored 0, delayed (>2 seconds) limb retrieval and/or interspersed flailing was scored 1, and no limb retrieval was scored 2; d. Increasing platform angle to slide test—This test monitors the strength and stability of resistance to slide down an inclined platform. It deploys a clean wooden board (60 cm by 40 cm) positioned horizontally. Mice were placed on the board with head facing up the increasing incline. The board then swings to increase the degree of inclination the rat experiences until slipping down the board feet first. The degree of the angle at which the rat relinquishes their grip/stance on the board (slips down) constitute the test results; e. the forelimb whole body suspension test—The test measures grip strength by duration of suspension by forepaws. The rat is suspended on a metal bar (diameter 5 mm) which it tightly holds onto by its forelimbs. The time (seconds) during which each rat could sustain its body weight while holding onto the bar is recorded. The mice drop from the bar onto soft material with no harm. The test was repeated three times and a mean result per rat was used as the score. Cumulatively these sensory motor/neurological findings indicate acute tolerability of 250 mg/kg HU-MCA-13 iv injection in Male C57BL/6 mice.

[2] = target: 5-Hydroxytryptamine (Serotonin) Receptor 2B (HTR2B) (Homo sapiens, UniProt P41595); assay: SAFETYscan HTR2B Calcium Flux; type: cell-based; conditions: 10 μM HU-MCA-13, read-out: Maximal Response
Sequence of 5-Hydroxytryptamine (Serotonin) Receptor 2B (HTR2B) (P41595 whole entry): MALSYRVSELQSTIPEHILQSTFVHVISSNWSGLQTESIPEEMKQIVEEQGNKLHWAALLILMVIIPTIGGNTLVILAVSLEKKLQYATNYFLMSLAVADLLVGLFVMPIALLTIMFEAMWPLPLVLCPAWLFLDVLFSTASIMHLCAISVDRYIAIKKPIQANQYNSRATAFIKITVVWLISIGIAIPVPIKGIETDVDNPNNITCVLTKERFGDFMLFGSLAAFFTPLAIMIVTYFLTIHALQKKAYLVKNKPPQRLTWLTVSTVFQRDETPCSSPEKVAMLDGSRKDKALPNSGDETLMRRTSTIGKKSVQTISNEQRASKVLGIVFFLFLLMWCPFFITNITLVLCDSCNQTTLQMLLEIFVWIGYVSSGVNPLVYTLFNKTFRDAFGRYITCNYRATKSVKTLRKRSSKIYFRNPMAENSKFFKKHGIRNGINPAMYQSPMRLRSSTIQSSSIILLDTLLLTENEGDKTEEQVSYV

[3] = target: Cannabinoid Receptor 1 (CNR1) (Homo sapiens, UniProt P21554); assay: SAFETYscan CNR1 cAMP; type: cell-based; conditions: 10 μM HU-MCA-13; for Emax: read-out: Maximal Response
Sequence of Cannabinoid Receptor 1 (CNR1) (P21554 whole entry): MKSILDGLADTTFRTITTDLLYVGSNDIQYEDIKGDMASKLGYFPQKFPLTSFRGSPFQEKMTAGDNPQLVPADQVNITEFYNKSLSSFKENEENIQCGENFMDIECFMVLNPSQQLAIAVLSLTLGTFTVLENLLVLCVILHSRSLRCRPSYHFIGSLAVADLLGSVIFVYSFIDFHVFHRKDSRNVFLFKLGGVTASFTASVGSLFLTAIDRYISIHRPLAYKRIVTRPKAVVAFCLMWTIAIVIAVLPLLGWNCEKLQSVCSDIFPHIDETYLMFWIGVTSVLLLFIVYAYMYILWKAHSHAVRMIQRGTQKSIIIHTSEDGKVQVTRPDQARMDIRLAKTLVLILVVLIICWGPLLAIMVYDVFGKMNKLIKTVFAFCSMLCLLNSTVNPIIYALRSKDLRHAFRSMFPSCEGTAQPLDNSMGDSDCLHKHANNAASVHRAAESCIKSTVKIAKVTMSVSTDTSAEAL

[4] = target: Adrenergic Receptor α1A (ADRA1A) (Homo sapiens, UniProt P35348); assay: SAFETYscan ADRA1A Calcium Flux; type: cell-based; conditions: 10 μM HU-MCA-13, read-out: Maximal Response
Sequence of Adrenergic Receptor α1A (ADRA1A) (P35348 whole entry): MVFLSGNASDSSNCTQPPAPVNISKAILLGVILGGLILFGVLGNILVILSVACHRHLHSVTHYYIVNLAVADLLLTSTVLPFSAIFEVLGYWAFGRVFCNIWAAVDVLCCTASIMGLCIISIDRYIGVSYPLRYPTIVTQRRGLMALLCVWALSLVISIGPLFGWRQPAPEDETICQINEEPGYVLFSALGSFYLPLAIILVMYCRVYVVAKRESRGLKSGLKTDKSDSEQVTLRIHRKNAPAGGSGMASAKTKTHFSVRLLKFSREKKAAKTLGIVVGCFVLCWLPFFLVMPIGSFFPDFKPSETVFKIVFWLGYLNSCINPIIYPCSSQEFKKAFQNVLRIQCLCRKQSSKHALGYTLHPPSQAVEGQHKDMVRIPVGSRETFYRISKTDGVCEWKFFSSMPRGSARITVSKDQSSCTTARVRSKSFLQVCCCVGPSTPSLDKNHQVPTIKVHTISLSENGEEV

PC12 cells = assay: Cytotoxicity (cell morphology, LDH release); type: cell-based; conditions: 10 μM
[5] = target: T2, A tetrodotoxin-resistant voltage-gated sodium channel (NAVI1.5) (Homo sapiens, UniProt Q14524); assay: cell-based; conditions: read-out: Maximal Response
T2 construct: DiscoverX (SAFETYscan contract panel)

[6] = target: T3, Monoamine oxidase type A (MAOA) (Homo sapiens, UniProt P21397); assay: SAFETYscan MAOA Enzymatic; type: biochemical; conditions: Inhibitor mode; 10 μM HU-MCA-13; read-out: Maximal Response
T3 construct: DiscoverX (SAFETYscan contract panel)
T3 sequence (P21397 whole entry): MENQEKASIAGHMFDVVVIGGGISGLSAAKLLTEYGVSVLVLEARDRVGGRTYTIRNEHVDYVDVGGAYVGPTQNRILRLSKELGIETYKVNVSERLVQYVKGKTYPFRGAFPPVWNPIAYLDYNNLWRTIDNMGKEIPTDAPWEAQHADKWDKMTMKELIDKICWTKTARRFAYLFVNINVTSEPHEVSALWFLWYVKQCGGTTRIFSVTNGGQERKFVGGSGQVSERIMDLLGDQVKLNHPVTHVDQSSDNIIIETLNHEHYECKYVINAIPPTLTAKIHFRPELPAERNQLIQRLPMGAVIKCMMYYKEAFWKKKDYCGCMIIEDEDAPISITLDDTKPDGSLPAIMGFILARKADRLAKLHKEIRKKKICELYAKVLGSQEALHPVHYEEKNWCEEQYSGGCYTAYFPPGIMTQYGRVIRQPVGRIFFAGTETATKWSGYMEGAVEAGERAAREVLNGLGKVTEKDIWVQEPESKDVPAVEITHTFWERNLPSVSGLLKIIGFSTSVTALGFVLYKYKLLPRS

[7] = target: Dopamine Receptor D2 (DRD2S) (Homo sapiens, UniProt P14416); assay: SAFETYscan DRD2S cAMP; type: cell-based; conditions: 10 μM HU-MCA-13
Sequence of Dopamine Receptor D2 (DRD2S) (P14416 1-414 isoform P14416-2): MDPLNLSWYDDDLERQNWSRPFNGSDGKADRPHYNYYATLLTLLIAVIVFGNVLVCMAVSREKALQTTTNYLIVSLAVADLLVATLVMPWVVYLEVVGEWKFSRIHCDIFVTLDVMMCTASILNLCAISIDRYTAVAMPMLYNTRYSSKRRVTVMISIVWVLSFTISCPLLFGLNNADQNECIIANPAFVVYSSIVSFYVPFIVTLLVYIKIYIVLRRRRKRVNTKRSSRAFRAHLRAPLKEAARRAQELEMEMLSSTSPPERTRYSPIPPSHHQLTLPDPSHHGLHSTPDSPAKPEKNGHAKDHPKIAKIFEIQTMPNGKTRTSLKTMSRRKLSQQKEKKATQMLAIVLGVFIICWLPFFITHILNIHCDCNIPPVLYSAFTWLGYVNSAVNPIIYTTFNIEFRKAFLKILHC

[8] = target: T4, Insulin Receptor (tyrosine kinase) (INSR) (Homo sapiens, UniProt P06213); assay: SAFETYscan INSR kinase Binding; conditions: Inhibitor mode, 10 μM HU-MCA-13, read-out: Maximal Response
T4 construct: DiscoverX (KINOMEscan)

[9] = target: Muscarinic acetylcholine Receptor M3 (CHRM3) (Homo sapiens, UniProt P20309); assay: cell-based; conditions: 10 μM HU-MCA-13, read-out: Maximal Response
Sequence of Muscarinic acetylcholine Receptor M3 (CHRM3) (P20309 whole entry): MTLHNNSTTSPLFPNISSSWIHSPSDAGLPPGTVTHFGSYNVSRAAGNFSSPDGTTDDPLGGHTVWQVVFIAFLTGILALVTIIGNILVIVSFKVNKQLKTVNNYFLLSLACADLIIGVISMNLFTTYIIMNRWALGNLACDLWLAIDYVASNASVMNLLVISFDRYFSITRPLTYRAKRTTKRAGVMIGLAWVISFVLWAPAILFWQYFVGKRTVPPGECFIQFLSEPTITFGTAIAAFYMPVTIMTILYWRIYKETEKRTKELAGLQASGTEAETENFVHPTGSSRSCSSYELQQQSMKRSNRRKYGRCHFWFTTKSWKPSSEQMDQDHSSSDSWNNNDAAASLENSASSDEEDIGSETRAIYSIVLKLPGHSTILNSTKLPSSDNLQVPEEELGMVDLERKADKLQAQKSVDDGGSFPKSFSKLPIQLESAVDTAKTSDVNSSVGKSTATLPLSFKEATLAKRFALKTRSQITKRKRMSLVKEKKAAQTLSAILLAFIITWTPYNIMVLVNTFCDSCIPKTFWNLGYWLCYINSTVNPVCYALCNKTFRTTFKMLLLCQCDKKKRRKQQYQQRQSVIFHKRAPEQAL

[10] = target: T5, cGMP-inhibited cyclic nucleotide phosphodiesterase 3A (PDE3A) (Homo sapiens, UniProt Q14432); assay: SAFETYscan PDE3A Enzymatic; type: biochemical; conditions: Inhibitor mode; 10 μM HU-MCA-13; read-out: Maximal Response
T5 construct: DiscoverX (SAFETYscan contract panel)

Sequence of Opioid Receptor Mu 1 (OPRM1) (P35372 whole entry): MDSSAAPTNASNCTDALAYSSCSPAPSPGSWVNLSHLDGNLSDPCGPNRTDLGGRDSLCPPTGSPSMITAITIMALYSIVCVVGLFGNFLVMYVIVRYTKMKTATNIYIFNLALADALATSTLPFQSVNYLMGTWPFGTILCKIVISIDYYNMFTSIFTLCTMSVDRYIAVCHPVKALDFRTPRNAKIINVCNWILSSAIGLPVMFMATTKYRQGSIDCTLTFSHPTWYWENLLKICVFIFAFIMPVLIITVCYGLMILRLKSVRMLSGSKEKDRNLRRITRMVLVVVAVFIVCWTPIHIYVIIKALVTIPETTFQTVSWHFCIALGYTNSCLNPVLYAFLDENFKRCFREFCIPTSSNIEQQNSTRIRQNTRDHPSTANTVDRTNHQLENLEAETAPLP

Q: How did the Emax ([1]; OPRM1, Agonist mode) turn out when C=CCC1CCC[C@@H](CCC(=O)O)C1=C (some centres unmarked) [Compound 13] was run?
A: The Emax was 9.31%.

Q: And the Emax ([1]; OPRM1, Antagonist mode)?
A: The Emax was 0.38%.

Q: And the Emax at 10 μM (hERG (Kv11.1))?
A: Its Emax at 10 μM is 0%.

Q: What about the sensory motor/neurological performance (male C57BL/6 mice; weekly routine motor tests) of the same molecule?
A: The sensory motor/neurological performance was “no neurological losses were observed”.

Q: And the Angle of increase (male C57BL/6 mice; Day 0)?
A: Its Angle of increase is 35 degrees.

Q: What about the “Beam balance (score)” value (male C57BL/6 mice; Day 0) of the same molecule?
A: Its value is 0.

Q: And the “Hind limb (placing test score)” value (male C57BL/6 mice; Day 0)?
A: The value was 0.

Q: And the mNSS (male C57BL/6 mice; Day 0)?
A: Its mNSS is 0.

Q: What about the Foot fault (male C57BL/6 mice; Day 0) of the same molecule?
A: Its Foot fault is 0/34 and 0/41 and 0/38 and 1/48.

Q: What about the Self-suspension time (male C57BL/6 mice; Day 0) of the same molecule?
A: The Self-suspension time was 8 seconds and 10 seconds (2×) and 9 seconds.

Q: And the Angle of increase (male C57BL/6 mice; Day 1)?
A: Its Angle of increase is 35 degrees.

Q: What about the “Beam balance (score)” value (male C57BL/6 mice; Day 1) of the same molecule?
A: The value was 0.

Q: And the “Hind limb (placing test score)” value (male C57BL/6 mice; Day 1)?
A: Its value is 0.

Q: What about the mNSS (male C57BL/6 mice; Day 1) of the same molecule?
A: The mNSS was 0.

Q: And the Foot fault (male C57BL/6 mice; Day 1)?
A: The Foot fault was 0/20 and 0/15 and 0/34 and 0/14.

Q: And the Self-suspension time (male C57BL/6 mice; Day 1)?
A: The Self-suspension time was 14 seconds and 12 seconds (2×) and 15 seconds.

Q: What about the Angle of increase (male C57BL/6 mice; Day 5) of the same molecule?
A: The Angle of increase was 35 degrees.

Q: And the “Beam balance (score)” value (male C57BL/6 mice; Day 5)?
A: The value was 0.

Q: What about the “Hind limb (placing test score)” value (male C57BL/6 mice; Day 5) of the same molecule?
A: Its value is 0.

Q: What about the mNSS (male C57BL/6 mice; Day 5) of the same molecule?
A: The mNSS was 0.

Q: What about the Foot fault (male C57BL/6 mice; Day 5) of the same molecule?
A: The Foot fault was 2/50 and 1/47 and 0/48 and 0/36.

Q: What about the Self-suspension time (male C57BL/6 mice; Day 5) of the same molecule?
A: The Self-suspension time was 13 seconds (2×) and 15 seconds and 14 seconds.

Q: And the Emax ([2]; Agonist mode)?
A: Its Emax is 0%.

Q: What about the Emax ([2]; Antagonist mode) of the same molecule?
A: Its Emax is 0.13%.

Q: What about the “Maximal Response” value ([3]; Agonist mode) of the same molecule?
A: The value was 50.22%.

Q: What about the Emax ([3]; Agonist mode) of the same molecule?
A: The Emax was 50.1%.

Q: What about the Emax ([3]; Antagonist mode) of the same molecule?
A: Its Emax is 0.57%.

Q: And the Emax ([4]; Agonist mode)?
A: Its Emax is 1.12%.

Q: What about the Emax ([4]; Antagonist mode) of the same molecule?
A: The Emax was 3.06%.

Q: And the “cytotoxicity (in words)” value (PC12 cells)?
A: The value was “not toxic to neurons”.

Q: What about the Emax [5] of the same molecule?
A: Its Emax is 0%.

Q: And the Emax [6]?
A: The Emax was 1.86%.

Q: And the Emax ([7]; read-out: Maximal Response, Agonist mode)?
A: The Emax was 0%.

Q: And the Emax ([7]; read-out: Maximal Response, Antagonist mode)?
A: Its Emax is 0.51%.

Q: What about the Emax [8] of the same molecule?
A: Its Emax is 3.22%.

Q: What about the Emax ([9]; Agonist mode) of the same molecule?
A: The Emax was 0.13%.

Q: And the Emax ([9]; Antagonist mode)?
A: The Emax was 8.81%.

Q: What about the Emax [10] of the same molecule?
A: The Emax was 3.21%.

From US20200239398A1, “METHYLENE-CYCLOALKYLACETATE DERIVATIVES AND THEIR USE IN TREATMENT OF NEUROTROPIC CONDITIONS” (Yissum Research Development Company of The Hebrew …, priority 2018, published 2020)
